Two compounds from patent US20240335427A1, “SMALL MOLECULE INHIBITION OF DEUBIQUITINATING ENZYME JOSEPHIN DOMAIN CONTAINING 1 (JOSD1) AS A TARGETED THERAPY FOR LEUKEMIAS WITH MUTANT JANUS KINASE 2 (JAK2)” (DANA-FARBER CANCER INSTITUTE, INC., priority 2021, published 2024) can be followed below.

In one series the target is UCHL1 (Homo sapiens (Human), UniProt P09936). In words: UCHL1 biochemical inhibition (ubiquitin hydrolase activity, purified enzyme).
The next series deals with USP30 (Homo sapiens (Human), UniProt Q70CQ3). Put plainly: USP30 biochemical IC50.
USP30, sequence (Q70CQ3 whole entry, species assumed): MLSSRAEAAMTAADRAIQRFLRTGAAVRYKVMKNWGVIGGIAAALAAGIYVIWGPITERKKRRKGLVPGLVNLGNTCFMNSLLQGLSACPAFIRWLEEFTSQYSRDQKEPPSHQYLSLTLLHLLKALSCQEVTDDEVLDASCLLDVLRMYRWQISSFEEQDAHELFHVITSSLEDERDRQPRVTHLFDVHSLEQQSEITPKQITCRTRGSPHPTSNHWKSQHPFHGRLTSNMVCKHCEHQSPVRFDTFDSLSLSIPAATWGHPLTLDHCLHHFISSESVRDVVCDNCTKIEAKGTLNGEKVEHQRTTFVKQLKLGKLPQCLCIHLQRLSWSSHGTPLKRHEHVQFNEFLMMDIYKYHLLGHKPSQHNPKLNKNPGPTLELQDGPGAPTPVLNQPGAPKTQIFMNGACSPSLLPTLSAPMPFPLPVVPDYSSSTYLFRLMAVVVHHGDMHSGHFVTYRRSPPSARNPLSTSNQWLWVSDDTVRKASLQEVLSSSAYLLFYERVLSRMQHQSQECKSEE
The subject of series [1] is native DUBs (UCHL1, USP30 and JOSD1). Put plainly: Competitive activity-based protein profiling with quantitative mass spectrometry in HEK-293T lysates. The note with it: block of labeling by DUB activity-based probes. The class given is binding. The procedure:
Activity Based Protein Profiling (ABPP) assay. DUB targets were investigated using competitive ABPP with quantitative mass spectrometry. The ability to block labeling of 50 DUBs by ubiquitin-based DUB activity-based probes was quantitatively measured in HEK-293T lysates.
DUB ABPP of Compound Targets. Activity-based probes biotin-Ub-PA (UbiQ-076) and biotin-Ub-VME (UbiQ-054) were obtained from UbiQ Bio. DUB Activity based protein profiling was performed using conditions modified from those in Schauer, et al., 2020, Scientific Reports, 10:1-15, based on work by Lawson, et al., 2017 Oncotarget, 8:51296-316. HEK 293T cells were lysed (50 mM Tris pH 8.0, 150 mM NaCl, 5 mM MgC2, 0.5 mM EDTA, 0.5% NP-40, 10% glycerol, 1 mM tris(2-carboxyethyl)phosphine (TCEP), protease and phosphatase inhibitors) and the lysate was clarified by centrifugation, then diluted to 10 mg/mL. 200 μL aliquots were incubated at the indicated compound concentrations or DMSO for 5 hours at room temperature, final DMSO concentration 0.5%. Afterwards, the treated lysates were incubated with 1 μM each of Biotin-Ub-PA and Biotin-Ub-VME for 90 minutes at room temperature. […]
Specifically, quantitative mass spectrometry was utilized to measure the ability of compounds 1 and 2 to block labeling of […] native DUBs by ubiquitin-based DUB activity-based probes in HEK-293T lysates. […]

The subject of series [2] is Ba/F3-EPOR-JAK2-V617F-expressing cells. Put plainly: Ba/F3 cell proliferation (CellTiter Glo). The class given is cell-based, murine. The procedure: Proliferation and Drug Combination Studies. Proliferation and drug combination studies were carried out as previously described (Yang, et al., 2020, British Journal of Cancer, 122:1175-84).
As toxicities can result from small molecule targeting of both oncogenic mutated JAK2 as well as its non-mutated counterpart, a chemical genetics screen was designed and performed of a DUB-focused small molecule inhibitor library with the goal of leveraging crosstalk between phosphorylation and ubiquitination to identify DUB inhibitors able to selectively degrade mutant JAK2 while sparing wt JAK2. Of relevance, activated FLT3 can be selectively degraded over the wt enzyme by inhibition of the DUB, USP10, (Wernig, et al., 2008, Blood, 111(7):3751-9) and similar to FLT3, JAK2 is ubiquitinated in an activation-dependent manner. In brief, the library of known and novel DUB inhibitors was evaluated for ability to suppress growth of Ba/F3-EPOR-JAK2-V617F-expressing cells selectively over Ba/F3-EPOR cells growing in the presence of interleukin-3.
(§1) A broader range of compounds 1 and 2, including concentrations lower than 1 μM, were also tested on growth of EPOR-JAK2-V617F-expressing Ba/F3 cells and parental Ba/F3 EpoR+ cells (24 hours treatment on 4000 cells per well) (FIG. 18-FIG. 18B). Cell growth inhibition (FIG. 17A-FIG. 17B, FIG. 18A-FIG. 18B) was tested on Ba/F3-EPOR-JAK2-V617F (-IL-3/WEHI) and parental Ba/F3-EPOR cells (+IL-3/WEHI) plated at 2000 cells per well, at 1, 3 and 10 μM for 24 hours using the Promega CellTiter Glo® assay.
In general terms: In ATP-based viability assays light output follows the ATP content of the culture.

Series [3] deals with JAK2-V617F. Put plainly: JAK2 protein level by western blotting in Ba/F3-EPOR-JAK2-V617F cells. Format: cell-based. The procedure: Immunoblotting and Immunoprecipitation. Protein lysate preparation, immunoblotting, and immunoprecipitation were carried out as previously described (Lamberto, et al., 2017 Cell Chem Biol., 224(12):1490-500 e11). Briefly, 0.7×10^6 cells were treated with compounds 1 and 2 at 0, 5, 10, […], cells were collected, and lysate was prepared in radioimmunoprecipitation assay (RIPA) buffer, JAK family and downstream signaling protein levels were detected by western blotting with the indicated antibodies. For immunoprecipitation, 1 mg protein for each sample was prepared and 1 μg antibody was used, immunoglobulin G (IgG) was added in same amount as nontargeting control.
as §1
(A western blot detects proteins with antibodies after separation by electrophoresis.)

For a further series, the target named is wt JAK2 (Mus musculus (Mouse), UniProt Q62120). In words: JAK2 protein level by western blotting in Ba/F3-EPOR-JAK2 wt cells. Format: cell-based. The procedure:
(§2) Immunoblotting and Immunoprecipitation. Protein lysate preparation, immunoblotting, and immunoprecipitation were carried out as previously described (Lamberto, et al., 2017 Cell Chem Biol., 224(12):1490-500 e11). Briefly, 0.7×10^6 cells were treated with compounds 1 and 2 at 0, 5, 10, and 20 μM for 16 or 24 hours, cells were collected, and lysate was prepared in radioimmunoprecipitation assay (RIPA) buffer, JAK family and downstream signaling protein levels were detected by western blotting with the indicated antibodies. For immunoprecipitation, 1 mg protein for each sample was prepared and 1 μg antibody was used, immunoglobulin G (IgG) was added in same amount as nontargeting control.

For another series, the system named is HEL cells. In words: HEL cell growth inhibition by fresh or aged drug stocks (stability). The following applies: stocks stored two to three years at −20° Celsius; 2.5, 5, 10, 20 μM, 24 hours. Format: cell-based, human. The procedure: Fresh or aged stocks of compounds 1 and 2 were tested for the ability to inhibit HEL cell growth at 2.5, 5, 10, and 20 μM of each drug after 24 hours (FIG. 19A-FIG. 19B).
The CellTiter Glo® assay was performed using HEL cells seeded at 1000 cells/well of a 96-well plate. The “fresh” drug stocks were obtained frozen (stored at −20° Celsius) within days of executing the proliferation experiment for which results are shown. The “aged” drug stocks were obtained from freeze-thawed stocks serially diluted and stored at −20° Celsius in the laboratory. The “aged” stocks were stored between at least two years to three years at −20° Celsius with little to no freeze-thaw cycles prior to execution of the proliferation experiment for which results are shown. “Aged” stocks may be stored for several years (e.g., at least one year, at least two years, at least three years, at least four years or more) at −20° Celsius prior to use.

The target of series [4] is JAK2-V617F (Homo sapiens (Human), UniProt O60674, V617F). In words: JAK2-V617F protein loss in human AML cell lines by western blotting. Format: cell-based. The following applies: HEL cells, co-treatment with cycloheximide. The procedure: as §2
A further series has as its system normal bone marrow cells. Put plainly: Normal bone marrow colony assay. The class given is cell-based, human. The protocol:
Normal human bone marrow was also analyzed in a colony assay: 24-well plates seeded with 200 cells/well in MethoCult™ H4434 Classic (methylcellulose-based medium with recombinant cytokines for human cells) ([…] Technologies™ INC., Vancouver, British Columbia, Canada). The plates contained targeted JOSD1 inhibitors at the indicated concentrations. Plates were incubated at 37° C. in 5% CO2 for >1 week, and then myeloid and erythroid colonies (early progenitors with erythroid and myeloid components: colony-forming unit for granulocytes and macrophages (CFU-GM), CFU-erythroid (E), BFU-E, and CFU-granulocyte, erythroid, macrophage, megakaryocyte (GEMM) were counted on an inverted microscope.

The target of series [5] is T1, JOSD1 (Homo sapiens (Human), UniProt Q15040). Put plainly: In vitro JOSD1 activity assay (biochemical IC50, purified enzyme).
Protocol: (§3) In vitro JOSD1 activity assay & Ubiquitin-7-amido-4-methylcoumarin (AMC) assay. In vitro JOSD1 activity assay was carried out with Ubiquitin-AMC assay. […] Recombinant JOSD1 was tested for activity in a Ubiquitin-AMC assay in the presence or absence of inhibitors. […] The reaction was incubated for 6 hours at room temperature prior to the addition of 2 μM Ubiquitin-AMC (Boston Biochem) substrate. The initial rate of the reaction was measured by collecting fluorescence data at one-minute intervals over a 30-minute period using a Clariostar® fluorescence plate reader at excitation and emission wavelengths of 345 and 445 nm, respectively. The calculated initial rate values were plotted against inhibitor concentrations to determine IC50 values.
(§4) In vitro JOSD1 activity assay. Recombinant full-length JOSD1 was tested for activity in a Ubiquitin-AMC assay in the presence or absence or inhibitors. For this assay, 10 nM JOSD1 was pre-incubated with different concentrations of inhibitors or DMSO as a control in 50 mM Tris 8.0, 0.5 mM EDTA, 10 mM ovalbumin, 5 mM DTT. The reaction was incubated for 6 h at room temperature prior to the addition of 2 mM Ubiquitin-AMC (Boston Biochem) substrate. The initial rate of the reaction was measured by collecting fluorescence data at one-minute intervals over a 30-minute period using a CLARIOstar® fluorescence plate reader at excitation and emission wavelengths of 345 and 445 nm, respectively. The calculated initial rate values were plotted against inhibitor concentrations to determine IC50 values.
(§5) JOSD1 biochemical inhibition was investigated for the analogs shown using the fluorescent substrate ubiquitin-rhodamine against purified enzyme in a continuous kinetic assay.
Series [6] addresses T1, JOSD1. Put plainly: biochemical.
Protocol: as §3, §4, §5

UCHL1, sequence (P09936 whole entry, species assumed): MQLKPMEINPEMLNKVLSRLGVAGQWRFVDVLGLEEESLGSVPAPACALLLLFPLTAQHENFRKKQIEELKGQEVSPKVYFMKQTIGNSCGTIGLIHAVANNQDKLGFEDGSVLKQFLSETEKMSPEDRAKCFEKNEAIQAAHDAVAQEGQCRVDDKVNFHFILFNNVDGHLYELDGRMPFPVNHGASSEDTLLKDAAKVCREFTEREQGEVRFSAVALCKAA

With `Cc1noc(C)c1-c1ccc2nc(NC(=O)[C@H]3CCN(C#N)C3)sc2c1` [Compound 1, (S)-1-cyano-N-(6-(3,5-dimethylisoxazol-4-yl)benzo[d]thiazol-2-yl)pyrrolidine-3-carboxamide], the “UCHL1 biochemical IC50 (range in words)” value at UCHL1 is “several hundred”. Further, the “USP30 biochemical IC50 (range in words)” value on USP30 is “several hundred”. The “target engagement of UCHL1, USP30 and JOSD1” value in series [1] is reported as “dose-dependent target engagement”. Besides, in [2], the “killing of Ba/F3-EPOR-JAK2-V617F cells compared to wt JAK2-expressing parental Ba/F3 cells” value is recorded as “selective killing” and the “sensitivity compared to Ba/F3 cells overexpressing other oncogenes” value is recorded as “among the highest sensitivity”. Besides, the cell growth inhibition entry in series [2] (1, 3 and 10 μM, 24 hours, independent experiments) is “inhibit growth”. In addition, the “JAK2 degradation, independent western blotting” value in the series on JAK2-V617F [3] (18 hours, 10 μM compound 1 or 5 μM compound 2) is listed as “degradation of JAK2”. Besides, the JAK2-V617F protein level entry with JAK2-V617F [3] (Ba/F3-EPOR-JAK2-V617F-expressing cells) is recorded as “decreases in JAK2-V617F protein”. Moreover, the “JAK2 levels in wt cells” value on wt JAK2 is reported as “little to no impact on JAK2 levels”. Besides, the “stability: growth inhibition by aged stocks versus fresh stocks” value with HEL cells is “comparable cell growth inhibition”. Besides, the JAK2-V617F protein half-life result at JAK2-V617F [4] is “shorten JAK2-V617F protein half-life”. In the series with normal bone marrow cells (5 μM or higher), the “normal bone marrow colony formation” value was “significantly impaired”. Also, the “normal bone marrow colony formation” value with normal bone marrow cells (concentrations up to 2.5 μM) is listed as “colonies were able to form”. Also, at JOSD1 [5], the “JOSD1 IC50 (range in words)” value is “several hundred”.
In general, IC50 refers to the midpoint of a concentration-inhibition curve. High values mean weaker potency in that assay, low ones greater potency in that assay. For the compound `CCS(=O)(=O)N1CCN(c2nc3cccc(-c4c(C)noc4C)c3s2)C(=O)C1` [Compound 66], the IC50 against JOSD1 [6] is > 100 nM.
